Experimental data from publication PMC7305224, “Mutually stabilizing interactions between proto-peptides and RNA” (Nature Communications, 2020).
Entries after “also recorded” stand apart in the source; their conditions may differ. Non-standard residues stand in square brackets, D forms with d. Residues, ends and D or L forms follow the SMILES beside them. Dab = NCC[C@H](N)C(=O)O

Assays:
Assay type in all cases: binding
[1] = system: RNA duplex 1; test: CD analysis of RNA duplex with peptides/depsipeptides; conditions: RNA duplex 5 µM, peptide/depsipeptide 0–10 µM, MES-TEA buffer (60 mM)
Description: The gel was cropped at the edges for clarity. […] […] Red and blue colors of the filled circles correspond to curves of the same color in panel (c). […] […] Scans were from 320 nm to 220 nm with a bandwidth of 5 nm, data pitch of 0.2 nm, and scan rate of 50 nm/min with three accumulations. […] Data were collected in independent triplicates and the data were averaged. Finally, data were smoothed and plotted using Matlab.

[2] = system: RNA duplex 1 (5′-rCrGrCrUrArArArUrCrG-3′ & 5′-rCrGrArUrUrUrArGrCrG-3′); test: RNA thermal denaturation (Tm) by UV hyperchromicity at 260 nm with synthetic peptides/depsipeptides, RNA duplex 1; conditions: 100 mM NaCl; for RNA duplex 1 Tm: observed Tm with peptide/depsipeptide 100 µM, mean ± SD of 2-4 independent experiments; for RNA duplex 1 ΔTm: peptide/depsipeptide 100 μM, RNA 2.5 μM each strand, mean of 2–4 replicates
Protocol: Each sample contained RNA duplex 1 (5′-rCrGrCrUrArArArUrCrG-3′ and 5′-rCrGrArUrUrUrArGrCrG-3′, 2.5 μM strand) and peptide/depsipeptide (100 μM) in buffered solution (10 mM phosphate, 100 mM NaCl, pH 7.0 or 10 mM acetate, 100 mM NaCl, pH 5.0). a Structures of depsipeptides used to systematically characterize cationic side chain effects on RNA duplex stability. Lactic acid residues are highlighted. Ac acetyl, Aba acetamidobenzoic acid, which was appended to the N-terminus to increase UV absorbance. b Structures of the Fmoc-didepsipeptide building blocks used for solid-phase synthesis of depsipeptide sequences. Fmoc fluorenylmethoxycarbonyl. c Comparative effects of oligo-didepsipeptide sequences 2–6 and analogous oligo-dipeptide and on the Tm of the RNA duplex (number of independent measurements: n = 3 for Arg and Lys sequences; n = 2 for His and Dab sequences; n = 4 for Orn sequences). The shaded areas correspond to the mean ± SD Tm measured for the RNA duplex alone (n = 16 independent measurements). Data are shown as a scatter plot with mean ± SD. d Comparative effects on RNA duplex Tm of depsipeptide sequences containing a single backbone ester (number of independent measurements: n = 3 for Arg; n = 2 for His, Orn, and Dab; n = 4 for Lys), relative to RNA duplex alone (n = 16 independent measurements). Data are shown as a scatter plot with mean ± SD. e To assess the impact of different cationic side chains on depsipeptide degradation rates, depsipeptides 7–11 (40 μM) were incubated at 37 °C in buffer (100 mM HEPES, 10 mM NaCl, pH 7.3). After 5 min, the reactions were quenched by the addition of 3% TFA, and samples were analyzed by HPLC.
(§1) Prior to Tm analyses, RNA samples were annealed in the appropriate buffer by heating to 75 °C and slowly cooling to room temperature. Depsipeptide/peptide was added to the annealed RNA and incubated at 4 °C for 20 min prior to carrying out the analysis. For analyses involving dry-down reaction mixtures, the Tm was determined by monitoring fluorescence increase upon melting of a fluorophore/quencher-labeled RNA duplex (5′-rCrGrArUrUrUrArGrCrG-/3IABkFQ/-3′ and 3′-rGrCrUrArArArUrCrGrC-FAM-5′) using a BioRad CFX Connect rtPCR instrument with a heating ramp of 1 °C/min and 20 μL final sample volumes. For analyses involving pure, synthetic compounds, the Tm of the RNA was determined by monitoring UV hyperchromicity at 260 nm using a Varian Cary Bio-100 spectrophotometer, with a heating ramp of 1 °C/min and 0.5- or 1-cm pathlength cells. The following RNA sequences were used: RNA duplex 1 = 5′-rCrGrCrUrArArArUrCrG-3′ and 5′-rCrGrArUrUrUrArGrCrG-3′; RNA duplex 2 = 5′-rArArArArUrUrUrArUrArUrUrArUrUrA-3′ and 5′-rUrArArUrArArUrArUrArArArUrUrUrU-3′; RNA duplex 3 = 5′-rArArCrGrUrArUrArCrGrUrU-3′ (palindromic); and H26a RNA = 5′-rArUrGrArGrUrArArCrCrGrUrArArGrGrUrGrArArArUrU-3′. RNA was present in each assay at a final concentration of 2.5 μM of the folded structure (2.5 μM each strand for duplex 1 and duplex 2, 5.0 μM palindromic strand for duplex 3, 2.5 μM strand for H26a RNA). Tm values were determined by nonlinear fitting of the melting curves using GraphPad Prism 8.2.1 for duplex 1 and H26a, or by finding the maximum of the first derivative of the curve using the Varian Cary Bio-100 software for duplex 2 and duplex 3.

[3] = system: RNA duplex 2 (5′-rArArArArUrUrUrArUrArUrUrArUrUrA-3′ and 5′-rUrArArUrArArUrArUrArArArUrUrUrU-3′); test: RNA thermal denaturation (Tm) by UV hyperchromicity, RNA duplex 2; conditions: for RNA duplex 2 Tm: observed Tm with peptide/depsipeptide 100 µM, pH 7.0, RNA alone 33.7 ± 0.7, mean ± SD of 2-4 independent experiments; for RNA duplex 2 ΔTm: peptide/depsipeptide 100 μM, RNA 2.5 μM each strand, pH 7.0, 10 mM phosphate, 100 mM NaCl, mean of 2–4 replicates
Protocol: as §1, with “3. Both methods of determining the Tm gave similar values for a given denaturation curve.” for “3.”

[4] = system: RNA duplex 3 (5′-rArArCrGrUrArUrArCrGrUrU-3′, palindromic); test: RNA thermal denaturation (Tm) by UV hyperchromicity, RNA duplex 3; conditions: for RNA duplex 3 Tm: observed Tm with peptide/depsipeptide 100 µM, pH 7.0, RNA alone 48.6 ± 0.7, mean ± SD of 2-4 independent experiments; for RNA duplex 3 ΔTm: peptide/depsipeptide 100 μM, 5.0 μM palindromic strand, pH 7.0, 10 mM phosphate, 100 mM NaCl, mean of 2–4 replicates
Protocol: as §1, with “3. Both methods of determining the Tm gave similar values for a given denaturation curve.” for “3.”

[5] = system: H26a RNA (5′-rArUrGrArGrUrArArCrCrGrUrArArGrGrUrGrArArArUrU-3′); test: RNA thermal denaturation (Tm) by UV hyperchromicity, H26a RNA hairpin; conditions: for H26a RNA Tm: observed Tm with peptide/depsipeptide 100 µM, pH 7.0, RNA alone 53.4 ± 0.5, mean ± SD of 2-4 independent experiments; for H26a RNA ΔTm: peptide/depsipeptide 100 μM, RNA 2.5 μM strand, pH 7.0, 10 mM phosphate, 100 mM NaCl, mean of 2–4 replicates
Protocol: as §1, with “3. Both methods of determining the Tm gave similar values for a given denaturation curve.” for “3.”

[6] = pH 7.0, 10 mM phosphate, RNA alone 43.8 ± 0.4
[7] = 10 mM phosphate, pH 7.0, vs RNA alone at matched pH
[8] = pH 5.0, 10 mM acetate, RNA alone 41.5 ± 0.3
[9] = 10 mM acetate, pH 5.0, vs RNA alone at pH 5.0

Compound | changes in CD spectra of the RNA duplex upon addition [1] | changes in CD spectra of the RNA duplex upon addition ([1]; listed as Ac-Tyr-Gly-(Ala-Dab-Lys)4-NH2) | RNA duplex 1 Tm [2, 6] [°C] | RNA duplex 1 ΔTm [2, 7] [°C] | RNA duplex 2 Tm [3] [°C] | RNA duplex 2 ΔTm [3] [°C] | RNA duplex 3 Tm [4] [°C] | RNA duplex 3 ΔTm [4] [°C] | H26a RNA Tm [5] [°C] | H26a RNA ΔTm [5] [°C] | RNA duplex 1 Tm [2, 8] [°C] | RNA duplex 1 ΔTm [2, 9] [°C]
CC(=O)N[C@@H](Cc1ccc(O)cc1)C(=O)NCC(=O)N[C@@H](C)C(=O)N[C@@H](CCN)C(=O)N[C@@H](CCCCN)C(=O)N[C@@H](C)C(=O)N[C@@H](CCN)C(=O)N[C@@H](CCCCN)C(=O)N[C@@H](C)C(=O)N[C@@H](CCN)C(=O)N[C@@H](CCCCN)C(N)=O (Ac-YGA[Dab]KA[Dab]KA[Dab]K-NH2) | physical association | – | – | – | – | – | – | – | – | – | – | –
CC(=O)N[C@@H](Cc1ccc(O)cc1)C(=O)NCC(=O)N[C@@H](C)C(=O)N[C@@H](CCN)C(=O)N[C@@H](CCCCN)C(=O)N[C@@H](C)C(=O)N[C@@H](CCN)C(=O)N[C@@H](CCCCN)C(=O)N[C@@H](C)C(=O)N[C@@H](CCN)C(=O)N[C@@H](CCCCN)C(=O)N[C@@H](C)C(=O)N[C@@H](CCN)C(=O)N[C@@H](CCCCN)C(N)=O (Ac-YGA[Dab]KA[Dab]KA[Dab]KA[Dab]K-NH2) | – | physical association; also recorded: changes were observed in the CD spectra | – | – | – | – | – | – | – | – | – | –
Aba-Arg-lac-Arg-lac-Arg-lac-Arg-lac-Arg-lac-Arg-lac-Arg-lac-Arg-lac-NH2 [compound 2] | – | – | 49.1 ± 0.7 | 5.3 | – | – | – | – | – | – | – | –
Aba-Dab-lac-Dab-lac-Dab-lac-Dab-lac-Dab-lac-Dab-lac-Dab-lac-Dab-lac-NH2 [compound 6] | – | – | 44.2 ± 0.2 | 0.4 | 36.2 ± 0.1 | 2.6 | 48.2 ± 0.1 | −0.4 | 53.9 ± 0.2 | 0.5 | – | –
Aba-Gly-Ala-Dab-Lys-Ala-Dab-Arg-lac-Dab-Lys-Ala-Dab-Lys-NH2 [compound 7] | – | – | 52.5 ± 0.3 | 8.7 | 41.8 ± 0.6 | 8.1 | 60.6 ± 0.8 | 12.0 | 64.8 ± 0.1 | 11.4 | – | –
Aba-Gly-Ala-Dab-Lys-Ala-Dab-Dab-lac-Dab-Lys-Ala-Dab-Lys-NH2 [compound 11] | – | – | 48.7 ± 0.2 | 4.9 | – | – | – | – | – | – | – | –
Aba-Gly-Ala-Dab-Lys-Ala-Dab-His-lac-Dab-Lys-Ala-Dab-Lys-NH2 [compound 8] | – | – | 48.9 ± 1.4 | 5.1 | – | – | – | – | – | – | 52.6 ± 0.2 | 11.1
Aba-Gly-Ala-Dab-Lys-Ala-Dab-Orn-lac-Dab-Lys-Ala-Dab-Lys-NH2 [compound 10] | – | – | 48.7 ± 1.2 | 4.9 | 41.8 ± 0.5 | 8.2 | 51.1 ± 1.3 | 2.5 | 56.9 ± 0.1 | 3.5 | – | –
Aba-His-lac-His-lac-His-lac-His-lac-His-lac-His-lac-His-lac-His-lac-NH2 [compound 3] | – | – | 44.3 ± 1.0 | 0.5 | – | – | – | – | – | – | 46.1 ± 0.7 | 4.6
Aba-Lys-lac-Lys-lac-Lys-lac-Lys-lac-Lys-lac-Lys-lac-Lys-lac-Lys-lac-NH2 [compound 4] | – | – | 46.4 ± 0.1 | 2.6 | 35.2 ± 0.1 | 1.5 | 52.5 ± 0.7 | 3.9 | 59.7 ± 0.6 | 6.3 | – | –
Aba-Orn-lac-Orn-lac-Orn-lac-Orn-lac-Orn-lac-Orn-lac-Orn-lac-Orn-lac-NH2 [compound 5] | – | – | 43.8 ± 0.9 | 0.0 | 34.6 ± 0.7 | 1.0 | 49.1 ± 0.1 | 0.5 | 52.3 ± 0.6 | −1.1 | – | –
